Experimental data reported in patent publication US10039753B2, “Imidazo[4,5-c]quinoline and imidazo[4,5-c][1,5]naphthyridine derivatives as LRRK2 inhibitors” (Pfizer Inc., priority 2015, dated 2018).
Where a name gives a salt, the structure may show the parent alone.

Assays:
mutant G2019S LRRK2 = mutant G2019S LRRK2 (Homo sapiens, UniProt Q5S007, G2019S); test: LRRK2 Assay, Format 2 (Lantha Screen), G2019S mutant; format: biochemical; design: purchased Invitrogen PV4881; conditions: geometric mean of 2-4 determinations unless otherwise indicated (a: >=5; b: single determination); read-out: LRRK2, Format 2 G2019S IC50
Chain of mutant G2019S LRRK2 (Q5S007 970-2527 G2019S limits assumed): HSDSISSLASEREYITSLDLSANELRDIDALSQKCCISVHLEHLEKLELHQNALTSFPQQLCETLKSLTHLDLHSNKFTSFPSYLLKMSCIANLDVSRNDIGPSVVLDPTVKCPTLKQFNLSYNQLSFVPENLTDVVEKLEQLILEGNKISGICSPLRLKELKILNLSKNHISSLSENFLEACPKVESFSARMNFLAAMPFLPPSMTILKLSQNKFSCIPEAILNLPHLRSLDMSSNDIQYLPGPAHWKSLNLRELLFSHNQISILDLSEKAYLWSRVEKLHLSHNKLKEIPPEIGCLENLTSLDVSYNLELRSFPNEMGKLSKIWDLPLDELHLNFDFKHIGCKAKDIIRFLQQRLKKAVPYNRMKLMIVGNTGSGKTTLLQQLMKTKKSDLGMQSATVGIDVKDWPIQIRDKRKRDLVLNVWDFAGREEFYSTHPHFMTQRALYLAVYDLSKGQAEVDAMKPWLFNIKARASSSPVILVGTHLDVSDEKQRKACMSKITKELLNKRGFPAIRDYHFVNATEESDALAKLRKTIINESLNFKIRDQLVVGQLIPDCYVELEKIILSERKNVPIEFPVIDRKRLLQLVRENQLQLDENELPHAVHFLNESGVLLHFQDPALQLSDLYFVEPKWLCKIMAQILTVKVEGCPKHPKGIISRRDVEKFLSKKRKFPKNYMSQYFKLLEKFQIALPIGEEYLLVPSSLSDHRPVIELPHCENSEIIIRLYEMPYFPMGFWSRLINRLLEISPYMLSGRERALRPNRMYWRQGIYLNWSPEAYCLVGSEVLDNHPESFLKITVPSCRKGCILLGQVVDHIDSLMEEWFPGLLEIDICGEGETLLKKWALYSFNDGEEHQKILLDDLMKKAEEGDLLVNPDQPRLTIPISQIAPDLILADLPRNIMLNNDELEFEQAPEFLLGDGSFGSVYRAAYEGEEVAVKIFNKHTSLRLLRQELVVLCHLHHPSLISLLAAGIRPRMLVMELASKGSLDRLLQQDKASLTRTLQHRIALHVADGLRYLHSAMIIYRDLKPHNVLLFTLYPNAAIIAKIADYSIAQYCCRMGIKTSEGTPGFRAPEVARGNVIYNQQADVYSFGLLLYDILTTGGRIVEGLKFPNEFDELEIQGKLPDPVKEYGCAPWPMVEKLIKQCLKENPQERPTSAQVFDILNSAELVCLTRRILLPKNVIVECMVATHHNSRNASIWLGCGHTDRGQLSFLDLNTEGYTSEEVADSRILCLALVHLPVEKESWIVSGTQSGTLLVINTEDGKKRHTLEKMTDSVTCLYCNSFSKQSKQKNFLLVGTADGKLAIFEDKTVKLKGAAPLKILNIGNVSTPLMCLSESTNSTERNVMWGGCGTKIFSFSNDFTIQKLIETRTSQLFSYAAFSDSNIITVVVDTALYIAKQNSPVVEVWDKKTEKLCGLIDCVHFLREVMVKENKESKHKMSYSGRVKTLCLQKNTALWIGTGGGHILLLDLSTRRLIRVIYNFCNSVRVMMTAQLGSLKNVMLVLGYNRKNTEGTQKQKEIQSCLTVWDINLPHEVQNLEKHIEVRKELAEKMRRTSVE
Method: (§1) LRRK2 kinase activity was measured using Lantha Screen technology from Invitrogen. GST-tagged truncated LRRK2 from Invitrogen (Cat # PV4874) was incubated with a fluorescein-labeled peptide substrate based upon ezrin/radixin/moesin (ERM), also known as LRRKtide (Invitrogen cat # PR8976A), in the presence of a dose response of compound. Upon completion, the assay was stopped and detected with a terbium labeled anti-phospho-ERM antibody (Invitrogen, cat # PR8975A). […] Using Echo acoustic dispensing, 60 nL of compound was transferred to a low volume Corning 384-well assay plate. 3 μL of a working solution of substrate (200 nM LRRKtide, […]) prepared in assay buffer (50 mM HEPES, pH 7.5, 3 mM MgCl2, with 2 mM DTT and 0.01% Brij35 added fresh) was added to the 60 nL compound assay plate. The kinase reaction was started with […] of a working solution of LRRK2 enzyme at a concentration of […]. The final reaction concentrations were 100 nM LRRKtide, […], […] LRRK2 enzyme and a compound dose response with a top dose of 3 mM. The reaction was allowed to progress at room temperature for 30 minutes and then stopped with the addition of […] of detection buffer (20 mM Tris pH 7.6, 0.01% NP-40, 6 mM EDTA with 2 nM terbium labeled anti-phospho-ERM). After an incubation of 1 hour at room temperature, the plate was read on an Envision with an excitation wavelength of 340 nm and a reading emission at both 520 nm and 495 nm. The ratio of the 520 nm and 495 nm emission was used to analyze the data. Inhibition of mutant G2019S LRRK2 (Invitrogen cat # PV4881) was measured in the exact same method. All final concentrations of substrate ATP and enzyme were the same.

[1] = biological target: T1, GST-tagged truncated LRRK2 (Homo sapiens, UniProt Q5S007); test: LRRK2 Assay, Format 2 (Lantha Screen), WT; format: biochemical; conditions: geometric mean of 2-4 determinations unless otherwise indicated (a: >=5; b: single determination)
T1 construct: GST-tagged truncated LRRK2 from Invitrogen (Cat # PV4874); GST; purchased Invitrogen PV4874
T1 sequence (Q5S007 970-2527 limits assumed): as the sequence (Q5S007 970-2527 G2019S limits assumed) above, with S1050G counted along it
Method: as §1

Row | SMILES | IC50 (mutant G2019S LRRK2) | IC50 [1]
1 | Cc1cc(Cc2nc3cnc4ccc(C#N)cc4c3n2[C@H]2CCCC[C@H]2O)no1 (racemic) [Example 242, 1-(cis-2-hydroxycyclohexyl)-2-[(5-methyl-1,2-oxazol-3-yl)methyl]-1H-imidazo[4,5-c]quinoline-8-carbonitrile, formate salt] | 119 nM | 122 nM
2 | Cc1cc(Cc2nc3cnc4ccc(C#N)cc4c3n2[C@H]2CCC[C@H]2F)no1 (racemic) [Example 245, 1-(cis-2-fluorocyclopentyl)-2-[(5-methyl-1,2-oxazol-3-yl)methyl]-1H-imidazo[4,5-c]quinoline-8-carbonitrile, formate salt] | 18.6 nM | 14.3 nM
3 | C[C@@H]1C[C@H](n2c(C(F)c3ccon3)nc3cnc4ccc(Cl)cc4c32)CCO1 (single isomer, unassigned) [Example 237] | 3.92 nM | 4 nM
4 | C[C@@H]1C[C@H](n2c(C(F)c3ccon3)nc3cnc4ccc(Cl)cc4c32)CCO1 (single isomer, unassigned) [Example 238] | 3.82 nM | 3.88 nM
5 | Cc1cc(Cc2nc3cnc4ccc(C#N)cc4c3n2C2CCCC2(F)F)no1 (single isomer, unassigned; ent-1) [Example 143, 1-(2,2-difluorocyclopentyl)-2-[(5-methyl-1,2-oxazol-3-yl)methyl]-1H-imidazo[4,5-c]quinoline-8-carbonitrile, ENT-1] | – | 53.9 nM
6 | FCCn1c(Cc2cnccn2)nc2cnc3ccc(Cl)cc3c21 [Example 182, 8-chloro-1-(2-fluoroethyl)-2-(pyrazin-2-ylmethyl)-1H-imidazo[4,5-c]quinoline] | – | 67.4 nM
7 | CCC(F)(F)Cn1c(Cc2noc(C)n2)nc2cnc3ccc(Cl)cc3c21 [Example 185, 8-chloro-1-(2,2-difluorobutyl)-2-[(5-methyl-1,2,4-oxadiazol-3-yl)methyl]-1H-imidazo[4,5-c]quinoline] | – | 73.2 nM

Other lines, results leading:

Row | IC50 (mutant G2019S LRRK2) | IC50 [1] | SMILES
8 | 8.18 nM | 5.62 nM | Cc1cn(Cc2nc3cnc4ccc(Cl)cc4c3n2[C@H]2CC[C@@H](F)C2)nn1 (single isomer, unassigned) [Example 93, 8-Chloro-1-(cis-3-fluorocyclopentyl)-2-[(4-methyl-1H-1,2,3-triazol-1-yl)methyl]-1H-imidazo[4,5-c]quinoline]
9 | 6.01 nM | 6.33 nM | Cc1cnn(Cc2nc3cnc4ccc(C#N)cc4c3n2[C@H]2CC[C@@H](F)C2)c1 (single isomer, unassigned) [Example 94, 1-[cis-3-Fluorocyclopentyl]-2-[(4-methyl-1H-pyrazol-1-yl)methyl]-1H-imidazo[4,5-c]quinoline-8-carbonitrile]
10 | 7.79 nM | 5.14 nM | Cc1cc(Cc2nc3cnc4ccc(C#N)cc4c3n2[C@@H]2CC[C@H](F)C2)no1 (single isomer, unassigned) [Example 97]
11 | – | 99.5 nM | Cc1cc(Cc2nc3cnc4ccc(Cl)cc4c3n2CCF)no1 [Example 181, 8-chloro-1-(2-fluoroethyl)-2-[(5-methyl-1,2-oxazol-3-yl)methyl]-1H-imidazo[4,5-c]quinoline]
12 | – | 110 nM | CO[C@H]1C[C@H](n2c(Cn3cc(C)nn3)nc3cnc4ccc(Cl)cc4c32)C1 [Example 188, 8-chloro-1-[(1r,3r)-3-methoxycyclobutyl]-2-[(4-methyl-1H-1,2,3-triazol-1-yl)methyl]-1H-imidazo[4,5-c]quinoline]
13 | – | 73.5 nM | C[C@@H]1C[C@H](n2c(Cc3nc(C4CC4)n(C)n3)nc3cnc4ccc(Cl)cc4c32)CCO1 [Example 191, 8-chloro-2-[(5-cyclopropyl-1-methyl-1H-1,2,4-triazol-3-yl)methyl]-1-[(2R,4R)-2-methyltetrahydro-2H-pyran-4-yl]-1H-imidazo[4,5-c]quinoline]
14 | – | 12.6 nM | C[C@@H]1C[C@H](n2c(Cc3cn4c(n3)COCC4)nc3cnc4ccc(Cl)cc4c32)CCO1 [Example 192, 8-chloro-2-(5,6-dihydro-8H-imidazo[2,1-c][1,4]oxazin-2-ylmethyl)-1-[(2R,4R)-2-methyltetrahydro-2H-pyran-4-yl]-1H-imidazo[4,5-c]quinoline]
